Measured values from patent US4183929A, “Tri-substituted triazines” (American Cyanamid Company, priority 1978, dated 1980).

Columns and labels:
[1] = system: late components of human complement (C3-C9); experiment: Test, Code 035 (C3-C9 inhibitor), lysis of EAC 142; format: biochemical; settings: Table I; twofold serial dilution
Source text: (§1) An active inhibitor protects C2 from C1 and C4; (ii) Test, Code 035 (C3-C9 inhibitor) - This test determines the ability of the late components of human complement (C3-C9) to lyse EAC 142 in the presence of appropriate dilutions of the test compound. An active inhibitor protects EAC 142 from lysis by human C3-C9; (iii) Test, Code 036 (C-Shunt inhibitor) - In this test human erythrocytes rendered fragile are lysed in autologous serum via the shunt pathway activated by cobra venom factor in the presence of appropriate dilutions of the test compound. Inhibition of the shunt pathway results in failure of lysis; (iv) Forssman Vasculitis Test - Here, the well known complement dependent lesion, Forssman vasculitis, is produced in guinea pigs by intradermal injection of rabbit anti-Forssman antiserum. The lesion is measured in terms of diameter, edema and hemorrhage and the extent to which a combined index of these is inhibited by prior intraperitoneal injection of the test compound at 200 mg is then reported, unless otherwise stated; (v) Forssman Shock Test--Lethal shock is produced in guinea pigs by an i.v. injection of anti-Forssman antiserum and the harmonic mean death time of treated guinea pigs is compared with that of simultaneous controls; (vi) Complement Level Reduction Test - In this test, the above dosed guinea pigs, or others, are bled for serum and the complement level is determined in undiluted serum by the capillary tube method of U.S. Pat. No. 3,876,376 and compared to undosed control guinea pigs; and (vii) Cap 50 Test - Here, appropriate amounts of the test compound are added to a pool of guinea pig serum in vitro, after which the undiluted serum capillary tube assay referred to above is run. The concentration of compound inhibiting 50% is reported.

[2] = system: citrated sheep plasma (CSP); experiment: In vitro anti-coagulant activity (AC) test; format: biochemical; settings: for AC Wells: Table I, twofold serial dilution, recalcified citrated sheep plasma; for In Vitro Activity Anti-Coagulant Activity (Wells) AC: Table II
Procedure: The sheep RBC's, kept in suspension throughout the slotting incubation time, become enmeshed in the fibrin matrix if a clot forms. Upon centrifugation of the plate, untrapped RBC's form buttons, the sizes of which correspond to the degree of clot inhibition; this providing a measure of anti-coagulant activity (AC).

[3] = Intrinsic Therapeutic Index (ITI) from Code 026 and AC wells; settings: Table II; for Logarithmic Difference Expressed As Wells: Code 026 wells minus AC wells (base 2); for Intrinsic Therapeutic Index: antilogarithm (base 2) of the difference of Code 026 and AC wells
Source text: The computation of an Intrinsic Therapeutic Index (ITI) was devised to correlate the results expressed in wells obtained in the in vitro Code 026 (C1 inhibitor) test and the in vitro anti-coagulant (AC) test into a meaningful value which would aid in the net evaluation of the activity of the compounds of this invention.
The ITI is thus a measure of the separation of anti-complement and anti-coagulant activities; the higher the numerical value the more therapeutically useful the separation of activities.

shunt pathway = experiment: Test, Code 036 (C-Shunt inhibitor), lysis of human erythrocytes via cobra venom factor activated shunt pathway; format: cell-based; settings: Table I; twofold serial dilution
Source text: An active inhibitor protects C2 from C1 and C4; (ii) Test, Code 035 (C3-C9 inhibitor) - This test determines the ability of the late components of human complement (C3-C9) to lyse EAC 142 in the presence of appropriate dilutions of the test compound. An active inhibitor protects EAC 142 from lysis by human C3-C9; (iii) Test, Code 036 (C-Shunt inhibitor) - In this test human erythrocytes rendered fragile are lysed in autologous serum via the shunt pathway activated by cobra venom factor in the presence of appropriate dilutions of the test compound. Inhibition of the shunt pathway results in failure of lysis; (iv) Forssman Vasculitis Test - Here, the well known complement dependent lesion, Forssman vasculitis, is produced in guinea pigs by intradermal injection of rabbit anti-Forssman antiserum. […]

activated human C1 = molecular target: T1, activated human C1 (Homo sapiens, UniProt P09871); experiment: Test, Code 026 (C1 inhibitor); format: biochemical; settings: for Cl 026 Wells: Table I, twofold serial dilution, higher well number indicates higher activity; for In Vitro Activity Complment Inhibiting Activity (Wells) Code 026: Table II
T1 construct: fluid-phase human C2 consumption with C4 present
Source text: as §1

T1 sequence (P09871 16-688): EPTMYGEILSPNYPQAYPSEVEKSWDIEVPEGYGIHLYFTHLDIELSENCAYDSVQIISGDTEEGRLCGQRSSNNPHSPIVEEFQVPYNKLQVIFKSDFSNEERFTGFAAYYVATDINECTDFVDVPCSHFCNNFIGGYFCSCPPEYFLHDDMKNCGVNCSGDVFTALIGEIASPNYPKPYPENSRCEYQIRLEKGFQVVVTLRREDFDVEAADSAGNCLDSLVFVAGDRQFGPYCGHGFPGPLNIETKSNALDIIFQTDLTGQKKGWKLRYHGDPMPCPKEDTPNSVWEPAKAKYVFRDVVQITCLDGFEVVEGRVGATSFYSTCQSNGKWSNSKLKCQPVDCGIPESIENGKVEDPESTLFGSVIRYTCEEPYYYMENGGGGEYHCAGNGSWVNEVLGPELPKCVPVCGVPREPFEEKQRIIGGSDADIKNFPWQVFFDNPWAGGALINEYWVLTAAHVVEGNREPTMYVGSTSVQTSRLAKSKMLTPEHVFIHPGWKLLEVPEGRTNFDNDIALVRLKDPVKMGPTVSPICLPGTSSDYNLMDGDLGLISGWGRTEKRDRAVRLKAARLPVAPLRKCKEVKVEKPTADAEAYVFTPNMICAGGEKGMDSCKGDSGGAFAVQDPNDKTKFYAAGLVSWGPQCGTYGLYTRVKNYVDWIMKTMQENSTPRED
T1 sequence (P00736 18-705 partner): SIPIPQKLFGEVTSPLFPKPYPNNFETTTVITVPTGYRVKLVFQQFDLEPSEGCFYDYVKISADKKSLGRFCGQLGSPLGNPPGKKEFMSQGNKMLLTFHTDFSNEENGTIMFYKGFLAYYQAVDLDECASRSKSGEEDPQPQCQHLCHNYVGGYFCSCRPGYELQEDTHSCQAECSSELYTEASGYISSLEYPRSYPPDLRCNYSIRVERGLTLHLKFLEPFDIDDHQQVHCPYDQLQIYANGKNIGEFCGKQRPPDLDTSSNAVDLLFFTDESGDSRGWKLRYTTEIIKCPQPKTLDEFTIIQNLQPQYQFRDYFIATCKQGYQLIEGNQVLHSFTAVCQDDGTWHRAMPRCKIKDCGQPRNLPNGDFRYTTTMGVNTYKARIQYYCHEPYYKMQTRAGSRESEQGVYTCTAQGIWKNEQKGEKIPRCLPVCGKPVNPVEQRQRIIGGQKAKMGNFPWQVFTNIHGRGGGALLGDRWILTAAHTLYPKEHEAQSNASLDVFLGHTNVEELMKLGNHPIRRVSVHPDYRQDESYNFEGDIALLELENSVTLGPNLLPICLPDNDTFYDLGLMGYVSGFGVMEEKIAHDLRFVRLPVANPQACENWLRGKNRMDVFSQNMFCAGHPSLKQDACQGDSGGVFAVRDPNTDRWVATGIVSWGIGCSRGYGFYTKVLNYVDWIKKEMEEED
T1 sequence (P02745 23-245 partner): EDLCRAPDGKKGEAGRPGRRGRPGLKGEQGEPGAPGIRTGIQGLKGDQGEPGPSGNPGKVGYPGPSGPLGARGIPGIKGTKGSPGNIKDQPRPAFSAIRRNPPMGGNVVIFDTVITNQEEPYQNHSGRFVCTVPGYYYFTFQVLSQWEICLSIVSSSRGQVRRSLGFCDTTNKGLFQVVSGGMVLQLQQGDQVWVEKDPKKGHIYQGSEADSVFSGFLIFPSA
T1 sequence (P02746 28-253 partner): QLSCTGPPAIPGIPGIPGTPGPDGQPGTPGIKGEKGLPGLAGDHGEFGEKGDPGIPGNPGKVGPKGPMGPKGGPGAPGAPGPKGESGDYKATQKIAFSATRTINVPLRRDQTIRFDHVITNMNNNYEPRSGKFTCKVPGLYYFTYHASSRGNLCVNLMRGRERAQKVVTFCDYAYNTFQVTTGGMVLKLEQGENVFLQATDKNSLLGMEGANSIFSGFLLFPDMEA
T1 sequence (P02747 29-245 partner): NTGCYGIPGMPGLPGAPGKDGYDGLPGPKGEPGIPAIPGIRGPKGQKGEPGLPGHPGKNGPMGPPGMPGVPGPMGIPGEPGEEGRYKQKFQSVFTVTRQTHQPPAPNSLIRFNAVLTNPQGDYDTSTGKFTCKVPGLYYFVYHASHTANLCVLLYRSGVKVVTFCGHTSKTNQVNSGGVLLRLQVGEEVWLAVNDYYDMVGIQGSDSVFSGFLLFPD

Row | SMILES | C-Late 035 Wells [1] | AC Wells [2] | In Vitro Activity Anti-Coagulant Activity (Wells) AC [2] | Logarithmic Difference Expressed As Wells [3] | Intrinsic Therapeutic Index [3] | Shunt Inhibition 036 Wells (shunt pathway) | Cl 026 Wells (activated human C1) | In Vitro Activity Complment Inhibiting Activity (Wells) Code 026 (activated human C1)
1 | O=C([O-])c1cc(Nc2nc(Nc3cc(C(=O)[O-])cc(C(=O)[O-])c3)nc(Nc3cc(C(=O)[O-])cc(C(=O)[O-])c3)n2)cc(C(=O)[O-])c1.[Na+].[Na+].[Na+].[Na+].[Na+].[Na+] [5,5',5"-(s-Triazine-2,4,6-triyltriimino)triisophthalic acid hexasodium salt] | N | -2 Wells | -2 Wells | – | – | – | – | –
2 | O=C([O-])c1cc(Nc2nc(Cl)nc(Nc3cc(C(=O)[O-])cc(C(=O)[O-])c3)n2)cc(C(=O)[O-])c1.[Na+].[Na+].[Na+].[Na+] [5,5'-[(6-Chloro-s-triazine-2,4-diyl)diimino]-diisophthalic acid tetrasodium salt] | N | < -2 Wells | -2 Wells | +5 Wells | 32 | N | +3 Wells | +3 Wells
3 | O=C(O)CN(CC(=O)O)c1nc(N(CC(=O)O)CC(=O)O)nc(N(CC(=O)O)CC(=O)O)n1 [(s-Triazine-2,4,6-triyltrinitrilo)hexaacetic acid] | N | -2 Wells | -2 Wells | +5 Wells | 32 | N | +3 Wells | +3 Wells
